Source: US7932246B2, “Histone deacetylase inhibitors” (Chroma Therapeutics Ltd., priority 2005, dated 2011)

Columns and labels:
HUT = HUT cell inhibition assay (WST-1 cell viability); assay type: cell-based; conditions: HUT cells, 72-96 h, WST-1 assay, IC50 range
Experimental: (§1) Cancer cell lines (U937 and HUT) growing in log phase were harvested and seeded at 1000-2000 cells/well (100 μl final volume) into 96-well tissue culture plates. Following 24 h of growth cells were treated with compound. Plates were then re-incubated for a further 72-96 h before a WST-1 cell viability assay was conducted according to the suppliers (Roche Applied Science) instructions.
(§2) Data were expressed as a percentage inhibition of the control, measured in the absence of inhibitor, as follows:— % inhibition=100−[(S^i/S^o)×100] where S^i is the signal in the presence of inhibitor and S^o is the signal in the presence of DMSO.
(§3) Dose response curves were generated from 8 concentrations (top final concentration 10 μM, with 3-fold dilutions), using 6 replicates.
(§4) IC50 values were determined by non-linear regression analysis, after fitting the results to the equation for sigmoidal dose response with variable slope (% activity against log concentration of compound), using Graphpad Prism software.
(§5) IC50 results were allocated to one of 3 ranges as follows: […]

U937 = U937 cell inhibition assay (WST-1 cell viability); assay type: cell-based; conditions: Homo sapiens, U-937; U937 cells, 72-96 h, WST-1 assay, IC50 range
Experimental: as §1, §2, §3, §4, §5

HeLa cells = assay: HeLa cell inhibition assay (SRB cell viability); assay type: cell-based; conditions: Homo sapiens, HeLa, 72 h, IC50 range
Experimental: HeLa cells growing in log phase were harvested and seeded at 1000 cells/well (200 μl final volume) into 96-well tissue culture plates. Following 24 h of cell growth cells were treated with compounds (final concentration of 20 μM). Plates were then re-incubated for a further 72 h before a sulphorhodamine B (SRB) cell viability assay was conducted according to Skehan 1990 J Natl Canc Inst 82, 1107-1112.
as §2
IC50 values were determined by non-linear regression analysis, after fitting the results of eight data points to the equation for sigmoidal dose response with variable slope (% activity against log concentration of compound), using Graphpad Prism software.
as §5

[1] = molecular target: histone deacetylase activity (HeLa nuclear extract); assay: HDAC fluorescent activity assay (Biomol, Fluor de Lys substrate); assay type: biochemical; conditions: IC50 range
Experimental: The ability of compounds to inhibit histone deacetylase activities was measured using the commercially available HDAC fluorescent activity assay from Biomol. In brief, the Fluor de Lys™ substrate, a lysine with an epsilon-amino acetylation, is incubated with the source of histone deacetylase activity (HeLa nuclear extract) in the presence or absence of inhibitor. Deacetylation of the substrate sensitises the substrate to Fluor de Lys™ developer, which generates a fluorophore.
Data are expressed as a percentage of the control, measured in the absence of inhibitor, with background signal being subtracted from all samples, as follows:— % activity=[(S^i−B)/(S^o−B)]×100 where S^i is the signal in the presence of substrate, enzyme and inhibitor, S^o is the signal in the presence of substrate, enzyme and the vehicle in which the inhibitor is dissolved, and B is the background signal measured in the absence of enzyme.
Histone deacetylase activity from crude nuclear extract derived from HeLa cells was used for screening. The preparation, purchased from 4C (Seneffe, Belgium), was prepared from HeLa cells harvested whilst in exponential growth phase. The nuclear extract is prepared according to Dignam JD1983 Nucl. Acid. […] The final buffer composition was 20 mM Hepes, 100 mM KCl, 0.2 mM EDTA, 0.5 mM DTT, 0.2 mM PMSF and 20% (v/v) glycerol.

SMILES	IC50 (HUT) [nM]	IC50 (U937) [nM]	IC50 (HeLa cells) [nM]	IC50 [1] [nM]
N#Cc1ccc(CNC2C3CN(c4ncc(C(=O)NO)cn4)CC32)cc1 (stereo not drawn) [Example 31, N-Hydroxy 2-{6-[(4-cyanobenzyl)amino]-3-azabicyclo[3.1.0]hex-3-yl}pyrimidine-5-carboxamide]	< 330	< 330	331 to 3300	< 100
O=C(NO)c1cnc(N2CC3CN(S(=O)(=O)c4ccc5ccccc5c4)CC3C2)nc1 (stereo not drawn) [Example 76, N-Hydroxy 2-[5-(naphthalene-2-sulfonyl)hexahydro-pyrrolo[3,4-c]pyrrol-2(1H)-yl]pyrimidine-5-carboxamide]	< 330	331 to 3300	331 to 3300	< 100
O=C(NO)c1cnc(N2CC3C(C2)C3NCc2ccc(OC(F)(F)F)cc2)nc1 (stereo not drawn) [Example 34, N-Hydroxy 2-{6-[(4-trifluoromethoxybenzyl)amino]-3-azabicyclo[3.1.0]hex-3-yl}pyrimidine-5-carboxamide]	< 330	< 330	331 to 3300	< 100
COc1ccc2c(c1)CCC2N1CC2CN(c3ncc(C(=O)NO)cn3)CC2C1 (stereo not drawn) [Example 80, N-Hydroxy 2-[5-(5-methoxyindan-1-yl)hexahydropyrrolo[3,4-c]pyrrol-2(1H)-yl]pyrimidine-5-carboxamide]	< 330	331 to 3300	< 330	< 100
O=C(NO)c1cnc(N2CC3C(C2)C3NC(=O)c2ccc3occc3c2)nc1 (stereo not drawn) [Example 16, N-Hydroxy 2-{6-[(1-benzofuran-5-ylcarbonyl)amino]-3-azabicyclo[3.1.0]hex-3-yl}pyrimidine-5-carboxamide]	< 330	331 to 3300	331 to 3300	< 100
O=C(NO)c1cnc(N2CC3C(C2)C3N(CCN2CCCC2)S(=O)(=O)c2ccc3ccccc3c2)nc1 (stereo not drawn) [Example 46, N-Hydroxy 2-{6-[(naphthalene-2-sulfonyl)-(2-pyrrolidin-1-yl-ethyl)amino]-3-azabicyclo[3.1.0]hex-3-yl}pyrimidine-5-carboxamide]	< 330	< 330	< 330	< 100
O=C(NO)c1cnc(N2CC3C(C2)C3NCc2ccccc2)nc1 (stereo not drawn) [Example 33, N-Hydroxy 2-[6-(benzylamino)-3-azabicyclo[3.1.0]hex-3-yl]pyrimidine-5-carboxamide]	< 330	< 330	< 330	< 100
O=C(NO)c1cnc(N2CC3C(C2)C3N2CCOCC2)nc1 (stereo not drawn) [Example 62, N-Hydroxy 2-(6-morpholin-4-yl-3-azabicyclo[3.1.0]hex-3-yl)pyrimidine-5-carboxamide]	331 to 3300	> 3300	> 3300	101 to 1000
CC(CNC1C2CN(c3ncc(C(=O)NO)cn3)CC21)c1ccccc1 (stereo not drawn) [Example 24, N-Hydroxy 2-{6-[(2-phenylpropyl)amino]-3-azabicyclo[3.1.0]hex-3-yl}pyrimidine-5-carboxamide]	< 330	< 330	331 to 3300	< 100
O=C(NO)c1cnc(N2CC3C(C2)C3NC(=O)c2cccs2)nc1 (stereo not drawn) [Example 18, N-Hydroxy 2-{6-[(thien-2-ylcarbonyl)amino]-3-azabicyclo[3.1.0]hex-3-yl}pyrimidine-5-carboxamide]	331 to 3300	> 3300	> 3300	< 100
O=C(NO)c1cnc(N2CC3C(C2)C3NCc2ccc(F)cc2)nc1 (stereo not drawn) [Example 41, N-Hydroxy 2-{6-[(4-fluorobenzyl)amino]-3-azabicyclo[3.1.0]hex-3-yl}pyrimidine-5-carboxamide]	< 330	< 330	331 to 3300	< 100
O=C(NO)c1cnc(N2CC3C(C2)C3NCc2ccc(Br)cc2)nc1 (stereo not drawn) [Example 36, N-Hydroxy 2-{6-[(4-bromobenzyl)amino]-3-azabicyclo[3.1.0]hex-3-yl}pyrimidine-5-carboxamide]	< 330	< 330		< 100
O=C(NO)c1cnc(N2CC3CN(S(=O)(=O)c4ccc(OC(F)(F)F)cc4)CC3C2)nc1 (stereo not drawn) [Example 82, N-Hydroxy 2-[5-{[4-(trifluoromethoxy)phenyl]sulfonyl}hexahydropyrrolo[3,4-c]pyrrol-2(1H)-yl]pyrimidine-5-carboxamide]	331 to 3300	331 to 3300	331 to 3300	< 100
O=C(NO)c1cnc(N2CC3CN(C(=O)CCCOc4ccccc4)CC3C2)nc1 (stereo not drawn) [Example 78, N-Hydroxy 2-[5-(4-phenoxybutyryl)hexahydropyrrolo[3,4-c]pyrrol-2(1H)-yl]pyrimidine-5-carboxamide]	331 to 3300	331 to 3300	> 3300	< 100
O=C(NO)c1cnc(N2CC3C(C2)C3Nc2nccc3ccccc23)nc1 (stereo not drawn) [Example 68, N-Hydroxy 2-[6-(isoquinolin-1-ylamino)-3-azabicyclo[3.1.0]hex-3-yl]pyrimidine-5-carboxamide]	< 330	< 330	< 330	< 100
O=C(NO)c1cnc(N2CC3C(C2)C3N(CCO)S(=O)(=O)c2ccc3ccccc3c2)nc1 (stereo not drawn) [Example 49, N-Hydroxy 2-{6-[(2-hydroxyethyl)(naphthalene-2-sulfonyl)amino]-3-azabicyclo[3.1.0]hex-3-yl}pyrimidine-5-carboxamide]	331 to 3300	331 to 3300	331 to 3300	< 100
COc1ccc(CNC2C3CN(c4ncc(C(=O)NO)cn4)CC32)cc1 (stereo not drawn) [Example 21, N-Hydroxy 2-{6-[(4-methoxybenzyl)amino]-3-azabicyclo[3.1.0]hex-3-yl}pyrimidine-5-carboxamide]	< 330	< 330	331 to 3300	
O=C(NO)c1cnc(N2CC3C(C2)C3NCC2CCCCC2)nc1 (stereo not drawn) [Example 25, N-Hydroxy 2-{6-[(cyclohexylmethyl)amino]-3-azabicyclo[3.1.0]hex-3-yl}pyrimidine-5-carboxamide]	< 330	< 330	< 330	
O=C(NO)c1cnc(N2CC3C(C2)C3NC(=O)c2ccccc2)nc1 (stereo not drawn) [Example 13, N-Hydroxy 2-[6-(benzoylamino)-3-azabicyclo[3.1.0]hex-3-yl]pyrimidine-5-carboxamide]	331 to 3300	331 to 3300	331 to 3300	
CN(C)CCCN(C1C2CN(c3ncc(C(=O)NO)cn3)CC21)S(=O)(=O)c1ccc2ccccc2c1 (stereo not drawn) [Example 50, N-Hydroxy 2-{6-[(3-dimethylaminopropyl)(naphthalene-2-sulfonyl)amino]-3-azabicyclo[3.1.0]hex-3-yl}pyrimidine-5-carboxamide]	< 330	< 330		< 100
O=C(CCCCCc1ccccc1)NC1C2CN(c3ncc(C(=O)NO)cn3)CC21 (stereo not drawn) [Example 8, N-Hydroxy 2-[6-(6-phenylhexanoyl)amino-3-azabicyclo[3.1.0]hex-3-yl]-pyrimidine-5-carboxamide]	< 330	331 to 3300	331 to 3300	
O=C(NO)c1cnc(N2CC3C(C2)C3NS(=O)(=O)c2cccs2)nc1 (stereo not drawn) [Example 2, N-Hydroxy 2-{6-[(thien-2-ylsulfonyl)amino]-3-azabicyclo[3.1.0]hex-3-yl}pyrimidine-5-carboxamide]	> 3300	> 3300	> 3300	
O=C(NO)c1cnc(N2CC3C(C2)C3NC(=O)c2ccc3sccc3c2)nc1 (stereo not drawn) [Example 17, N-Hydroxy 2-{6-[(1-benzothien-5-ylcarbonyl)amino]-3-azabicyclo[3.1.0]hex-3-yl}pyrimidine-5-carboxamide]	< 330	331 to 3300	331 to 3300	
CN(C)CCN(C1C2CN(c3ncc(C(=O)NO)cn3)CC21)S(=O)(=O)c1ccc2ccccc2c1 (stereo not drawn) [Example 52, N-Hydroxy 2-{6-[(2-dimethylaminoethyl)(naphthalene-2-sulfonyl)-amino]-3-azabicyclo[3.1.0]hex-3-yl}pyrimidine-5-carboxamide]	< 330	331 to 3300	331 to 3300	
